# Assay results published in ChEMBL document CHEMBL4477246, “New small molecule inhibitors of histone methyl transferase DOT1L with a nitrile as a non-traditional replacement for heavy halogen atoms” (Bioorg Med Chem Lett, 2016).
# What was measured:
# [1] = target: T1, Histone-lysine N-methyltransferase, H3 lysine-79 specific (Homo sapiens, UniProt Q8TEK3); experiment: Inhibition of DOT1L (unknown origin) using chicken nucleosome as substrate in presence of [3H]SAM incubated for 1 hr by TopCount method
# Target sequence in this assay (Q8TEK3 whole entry): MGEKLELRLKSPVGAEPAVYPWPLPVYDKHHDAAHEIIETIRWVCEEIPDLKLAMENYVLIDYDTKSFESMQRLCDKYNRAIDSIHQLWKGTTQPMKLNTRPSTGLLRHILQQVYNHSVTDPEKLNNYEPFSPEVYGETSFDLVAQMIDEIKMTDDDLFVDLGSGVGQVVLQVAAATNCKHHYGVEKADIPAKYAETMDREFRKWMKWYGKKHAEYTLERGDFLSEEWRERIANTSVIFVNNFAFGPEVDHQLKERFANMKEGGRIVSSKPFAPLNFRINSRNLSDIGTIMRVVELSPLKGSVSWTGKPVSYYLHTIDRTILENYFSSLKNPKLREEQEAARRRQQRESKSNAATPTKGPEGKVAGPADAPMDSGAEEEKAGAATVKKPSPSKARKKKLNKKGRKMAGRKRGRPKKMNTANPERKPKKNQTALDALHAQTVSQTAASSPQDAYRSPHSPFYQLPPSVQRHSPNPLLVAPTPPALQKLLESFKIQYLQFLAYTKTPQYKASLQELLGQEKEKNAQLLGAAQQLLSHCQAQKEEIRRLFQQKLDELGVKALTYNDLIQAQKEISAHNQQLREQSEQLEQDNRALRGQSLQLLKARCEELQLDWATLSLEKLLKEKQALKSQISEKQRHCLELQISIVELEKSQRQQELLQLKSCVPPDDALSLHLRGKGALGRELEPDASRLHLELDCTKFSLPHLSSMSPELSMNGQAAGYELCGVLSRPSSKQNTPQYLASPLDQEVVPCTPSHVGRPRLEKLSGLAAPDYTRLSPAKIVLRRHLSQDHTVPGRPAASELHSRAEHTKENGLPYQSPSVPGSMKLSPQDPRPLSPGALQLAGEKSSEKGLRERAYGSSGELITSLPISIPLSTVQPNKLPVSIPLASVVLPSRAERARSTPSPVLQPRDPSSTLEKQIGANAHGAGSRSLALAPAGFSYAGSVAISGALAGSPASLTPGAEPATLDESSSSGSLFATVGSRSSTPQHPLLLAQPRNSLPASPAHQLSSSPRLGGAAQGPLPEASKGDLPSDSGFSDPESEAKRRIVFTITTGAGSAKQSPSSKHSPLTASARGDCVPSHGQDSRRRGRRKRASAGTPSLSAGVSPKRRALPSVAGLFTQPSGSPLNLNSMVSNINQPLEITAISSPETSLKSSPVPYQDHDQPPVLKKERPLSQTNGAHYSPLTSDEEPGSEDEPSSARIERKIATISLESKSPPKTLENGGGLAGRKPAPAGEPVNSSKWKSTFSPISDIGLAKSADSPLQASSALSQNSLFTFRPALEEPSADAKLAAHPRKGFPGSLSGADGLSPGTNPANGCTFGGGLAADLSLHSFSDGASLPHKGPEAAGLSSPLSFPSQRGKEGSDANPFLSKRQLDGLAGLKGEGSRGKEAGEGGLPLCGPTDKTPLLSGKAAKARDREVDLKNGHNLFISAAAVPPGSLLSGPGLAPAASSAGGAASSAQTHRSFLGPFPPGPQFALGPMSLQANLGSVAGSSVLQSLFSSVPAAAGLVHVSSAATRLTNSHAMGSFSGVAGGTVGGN
# [2] = target: Protein arginine N-methyltransferase 3 (Homo sapiens, UniProt O60678); experiment: Inhibition of PRMT3 (unknown origin)
# [3] = target: T2, Histone-lysine N-methyltransferase SETD7 (Homo sapiens, UniProt Q8WTS6); experiment: Inhibition of SETD7 (unknown origin)
# T2 sequence (Q8WTS6 whole entry): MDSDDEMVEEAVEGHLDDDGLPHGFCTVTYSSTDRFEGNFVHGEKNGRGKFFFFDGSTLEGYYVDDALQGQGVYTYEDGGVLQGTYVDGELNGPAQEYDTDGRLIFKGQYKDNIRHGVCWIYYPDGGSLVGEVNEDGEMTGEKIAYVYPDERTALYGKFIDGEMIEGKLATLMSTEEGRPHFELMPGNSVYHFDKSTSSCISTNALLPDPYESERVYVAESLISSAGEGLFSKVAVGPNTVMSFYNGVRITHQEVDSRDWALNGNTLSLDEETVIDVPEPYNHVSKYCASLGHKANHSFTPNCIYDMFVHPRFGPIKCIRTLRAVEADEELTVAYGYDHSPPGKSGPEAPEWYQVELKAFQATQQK
# [4] = target: Histone-lysine N-methyltransferase SUV39H2 (Homo sapiens, UniProt Q9H5I1); experiment: Inhibition of SUV39H2 (unknown origin)
# [5] = target: T1, Histone-lysine N-methyltransferase, H3 lysine-79 specific; experiment: Inhibition of DOT1L (unknown origin) at 250 uM using chicken nucleosome as substrate in presence of [3H]SAM incubated for 1 hr by TopCount method
# Target sequence in this assay (Q8TEK3 whole entry, looked up): as the sequence (Q8TEK3 whole entry) above
# [6] = target: DNA (cytosine-5)-methyltransferase 1 (Homo sapiens, UniProt P26358); experiment: Inhibition of DNMT1 (unknown origin)
# [7] = target: Histone-lysine N-methyltransferase EZH2 (Homo sapiens, UniProt Q15910); experiment: Inhibition of EZH2 (unknown origin)
# [8] = target: Protein arginine N-methyltransferase 5 (Homo sapiens, UniProt O14744); experiment: Inhibition of PRMT5 (unknown origin)
# [9] = target: T3, Histone-lysine N-methyltransferase EHMT2 (Homo sapiens, UniProt Q96KQ7); experiment: Inhibition of G9a (unknown origin)
# T3 sequence (Q96KQ7 whole entry): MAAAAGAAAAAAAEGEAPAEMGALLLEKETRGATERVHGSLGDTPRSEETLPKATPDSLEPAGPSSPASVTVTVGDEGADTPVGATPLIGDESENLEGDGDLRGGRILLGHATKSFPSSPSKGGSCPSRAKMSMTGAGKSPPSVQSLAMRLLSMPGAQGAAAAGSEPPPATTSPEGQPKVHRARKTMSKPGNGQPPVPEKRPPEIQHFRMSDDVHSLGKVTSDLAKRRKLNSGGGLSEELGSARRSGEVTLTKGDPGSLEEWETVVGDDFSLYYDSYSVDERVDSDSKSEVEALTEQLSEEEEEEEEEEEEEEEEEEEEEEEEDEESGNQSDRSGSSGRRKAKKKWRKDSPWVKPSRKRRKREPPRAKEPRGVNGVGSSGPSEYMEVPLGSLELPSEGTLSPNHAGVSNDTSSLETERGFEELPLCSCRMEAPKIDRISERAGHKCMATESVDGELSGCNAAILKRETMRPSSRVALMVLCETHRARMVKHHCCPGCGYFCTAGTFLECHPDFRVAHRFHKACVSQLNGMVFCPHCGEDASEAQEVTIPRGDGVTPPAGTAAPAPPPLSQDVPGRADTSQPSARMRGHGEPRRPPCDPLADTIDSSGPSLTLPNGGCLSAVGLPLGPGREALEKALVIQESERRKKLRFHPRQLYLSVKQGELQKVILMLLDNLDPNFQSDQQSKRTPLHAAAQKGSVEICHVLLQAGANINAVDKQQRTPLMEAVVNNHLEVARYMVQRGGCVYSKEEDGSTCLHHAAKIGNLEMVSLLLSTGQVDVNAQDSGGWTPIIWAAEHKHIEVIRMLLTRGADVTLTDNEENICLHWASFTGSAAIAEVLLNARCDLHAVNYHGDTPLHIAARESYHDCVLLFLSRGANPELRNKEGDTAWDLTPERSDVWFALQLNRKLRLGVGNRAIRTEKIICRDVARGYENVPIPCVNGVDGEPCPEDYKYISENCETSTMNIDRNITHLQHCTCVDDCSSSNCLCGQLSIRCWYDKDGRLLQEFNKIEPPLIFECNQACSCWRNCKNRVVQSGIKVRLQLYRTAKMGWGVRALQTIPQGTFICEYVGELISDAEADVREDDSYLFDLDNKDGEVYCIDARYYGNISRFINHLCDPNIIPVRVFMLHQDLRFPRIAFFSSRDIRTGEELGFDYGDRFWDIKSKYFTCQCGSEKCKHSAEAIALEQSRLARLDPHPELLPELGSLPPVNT
# Sequence of Histone-lysine N-methyltransferase SUV39H2 (Q9H5I1 whole entry): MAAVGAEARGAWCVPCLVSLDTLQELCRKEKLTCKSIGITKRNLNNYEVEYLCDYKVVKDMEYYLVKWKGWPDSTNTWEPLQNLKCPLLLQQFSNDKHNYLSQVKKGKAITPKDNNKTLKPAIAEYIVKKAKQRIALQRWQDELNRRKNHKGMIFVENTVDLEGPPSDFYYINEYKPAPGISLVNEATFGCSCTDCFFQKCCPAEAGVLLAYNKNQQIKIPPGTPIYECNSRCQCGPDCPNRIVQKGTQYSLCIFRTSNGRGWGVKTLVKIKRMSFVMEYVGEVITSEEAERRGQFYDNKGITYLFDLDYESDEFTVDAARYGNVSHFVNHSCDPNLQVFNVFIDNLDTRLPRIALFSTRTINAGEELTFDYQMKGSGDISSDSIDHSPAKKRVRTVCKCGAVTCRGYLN
# Sequence of Protein arginine N-methyltransferase 3 (O60678 whole entry): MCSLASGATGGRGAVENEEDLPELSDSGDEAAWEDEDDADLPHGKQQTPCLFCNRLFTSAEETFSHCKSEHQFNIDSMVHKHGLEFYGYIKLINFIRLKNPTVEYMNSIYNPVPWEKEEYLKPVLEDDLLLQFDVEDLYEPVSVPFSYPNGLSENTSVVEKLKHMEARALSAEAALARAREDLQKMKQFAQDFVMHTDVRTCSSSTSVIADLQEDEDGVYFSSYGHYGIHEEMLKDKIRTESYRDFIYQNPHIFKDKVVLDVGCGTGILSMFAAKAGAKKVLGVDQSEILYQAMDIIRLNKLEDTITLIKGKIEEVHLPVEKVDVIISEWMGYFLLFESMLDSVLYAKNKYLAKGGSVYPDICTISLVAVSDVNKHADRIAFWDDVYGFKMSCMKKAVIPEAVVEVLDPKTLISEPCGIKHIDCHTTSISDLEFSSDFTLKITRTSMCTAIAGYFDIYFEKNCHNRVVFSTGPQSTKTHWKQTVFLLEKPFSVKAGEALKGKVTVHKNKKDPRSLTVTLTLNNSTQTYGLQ
# Sequence of Protein arginine N-methyltransferase 5 (O14744 whole entry): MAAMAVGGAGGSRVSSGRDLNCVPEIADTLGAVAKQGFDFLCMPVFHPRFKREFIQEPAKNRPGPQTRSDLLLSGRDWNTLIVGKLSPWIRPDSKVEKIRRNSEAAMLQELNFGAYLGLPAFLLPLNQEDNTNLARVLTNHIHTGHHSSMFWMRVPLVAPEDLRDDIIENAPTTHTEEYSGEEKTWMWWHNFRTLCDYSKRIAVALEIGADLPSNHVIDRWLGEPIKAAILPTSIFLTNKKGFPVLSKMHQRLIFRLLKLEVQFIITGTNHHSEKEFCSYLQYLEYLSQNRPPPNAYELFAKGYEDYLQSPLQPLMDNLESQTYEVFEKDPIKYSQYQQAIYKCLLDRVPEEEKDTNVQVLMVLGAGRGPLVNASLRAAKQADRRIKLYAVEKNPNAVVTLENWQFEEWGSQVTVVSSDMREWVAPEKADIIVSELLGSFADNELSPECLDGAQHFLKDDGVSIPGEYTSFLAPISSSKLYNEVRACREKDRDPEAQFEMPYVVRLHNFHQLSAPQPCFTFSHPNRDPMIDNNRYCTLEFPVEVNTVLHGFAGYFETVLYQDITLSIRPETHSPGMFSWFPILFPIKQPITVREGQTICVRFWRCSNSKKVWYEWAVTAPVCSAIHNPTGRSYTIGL
# Sequence of Histone-lysine N-methyltransferase EZH2 (Q15910 whole entry): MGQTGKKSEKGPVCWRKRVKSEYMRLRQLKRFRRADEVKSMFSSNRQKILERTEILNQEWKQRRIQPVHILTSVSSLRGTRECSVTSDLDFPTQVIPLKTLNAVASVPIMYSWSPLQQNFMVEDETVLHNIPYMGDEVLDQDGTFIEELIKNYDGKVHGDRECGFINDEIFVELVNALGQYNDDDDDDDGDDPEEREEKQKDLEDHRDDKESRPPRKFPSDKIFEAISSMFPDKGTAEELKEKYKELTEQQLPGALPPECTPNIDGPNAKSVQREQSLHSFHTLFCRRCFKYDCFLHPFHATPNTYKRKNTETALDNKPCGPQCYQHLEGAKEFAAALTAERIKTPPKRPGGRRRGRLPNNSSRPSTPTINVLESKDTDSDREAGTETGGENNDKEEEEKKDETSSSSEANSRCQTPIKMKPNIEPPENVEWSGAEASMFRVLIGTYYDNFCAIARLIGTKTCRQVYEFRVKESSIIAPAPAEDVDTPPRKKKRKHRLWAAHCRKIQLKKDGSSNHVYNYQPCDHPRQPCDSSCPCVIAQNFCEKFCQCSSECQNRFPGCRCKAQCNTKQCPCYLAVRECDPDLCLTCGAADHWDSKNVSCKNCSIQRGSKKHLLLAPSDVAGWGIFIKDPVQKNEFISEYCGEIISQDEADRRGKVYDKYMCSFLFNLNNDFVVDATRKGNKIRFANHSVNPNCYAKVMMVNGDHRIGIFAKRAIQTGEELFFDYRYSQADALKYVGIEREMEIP
structure (smiles),measurement,setting,value
NC(=O)c1cn([C@@H]2O[C@H](CO)[C@@H](O)[C@H]2O)c2ncnc(N)c12 [SANGIVAMYCIN],IC50,[1],26 µM
Nc1ncnc2c1c(I)nn2[C@@H]1O[C@H](CO)[C@@H](O)[C@H]1O,IC50,[1],22 µM
C#Cc1cn([C@@H]2O[C@H](CO)[C@@H](O)[C@H]2O)c2ncnc(N)c12,IC50,[1],41 µM
Nc1ncnc2c1ncn2[C@@H]1O[C@H](CSCC[C@H](N)C(=O)O)[C@@H](O)[C@H]1O [S-ADENOSYLHOMOCYSTEINE],IC50,[2],2 µM
same,IC50,[3]; read-out: IC50,47 µM
same,IC50,[4]; read-out: IC50,22 µM
COc1ccc(Cc2cn([C@@H]3O[C@H](CO)[C@@H](O)[C@H]3O)c3ncnc(N)c23)cc1,inhibition,[5],42%
Nc1ncnc2c1c(-c1ncco1)cn2[C@@H]1O[C@H](CO)[C@@H](O)[C@H]1O,IC50,[1],43 µM
N#Cc1cn([C@@H]2O[C@H](CO)[C@@H](O)[C@H]2O)c2ncnc(N)c12 [TOYOCAMYCIN],IC50,[1],44 µM
N#Cc1cn([C@@H]2O[C@H](CSCC[C@H](N)C(=O)O)[C@@H](O)[C@H]2O)c2ncnc(N)c12,IC50,[6],0.15 µM
same,IC50,[7],Not Active
same,IC50,[8],2.4 µM
same,IC50,[2],0.87 µM
same,IC50,[9],99 µM
same,IC50,[3],Not Active
same,IC50,[4],Not Active
N#Cc1c(Br)n([C@@H]2O[C@H](CO)[C@@H](O)[C@H]2O)c2ncnc(N)c12,IC50,[1],200 µM
Nc1ncnc2c1c(F)cn2[C@@H]1O[C@H](CO)[C@@H](O)[C@H]1O,IC50,[1],200 µM
